Experimental data as given in patent US20230085307A1, “PYRIDAZINONE COMPOUND AND HERBICIDE” (NISSAN CHEMICAL CORPORATION, priority 2019, published 2023).

Key:
blackgrass [1] = test: Test Example 4: herbicidal effect by soil treatment (Table 19, symbol J); assay type: in vivo, blackgrass (Alopecurus myosuroides)
How it was run: (§1)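 Step 1: sow seeds in sterilized diluvial soil, cover ~1.5 cm. Step 2: spray diluted emulsion onto soil surface at predetermined rate. Step 3: greenhouse, 25–30° C, three weeks. Step 4: grade effect on each plant by earlier criteria.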

windgrass [2] = test: Test Example 5: herbicidal effect by foliage application, plastic box (Table 20, symbol L); assay type: in vivo, windgrass (Apera spica-venti); conditions: foliage application, 320 g/ha, 3 weeks after application
How it was run: (§2)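 Foliar spray test: emulsion formulation diluted in water to a set application rate, sprayed onto 14-day-old plants raised in diluvial soil at 25° C to 30° C under glass. Both herbicidal effect and crop effect rated visually three weeks later.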

green foxtail [3] = test: Test Example 5: herbicidal effect by foliage application, plastic box (Table 20, symbol G); assay type: in vivo, green foxtail (Setaria viridis); conditions: foliage application, 320 g/ha, 3 weeks after application
How it was run: as §2

windgrass [4] = test: Test Example 4: herbicidal effect by soil treatment (Table 19, symbol L); assay type: in vivo, windgrass (Apera spica-venti)
How it was run: as §1

velvetleaf [5] = test: Test Example 5: herbicidal effect by foliage application, plastic box (Table 20, symbol M); assay type: in vivo, velvetleaf (Abutilon theophrasti); conditions: foliage application, 320 g/ha, 3 weeks after application
How it was run: as §2

barnyard grass [6] = test: Test Example 5: herbicidal effect by foliage application, plastic box (Table 20, symbol H); assay type: in vivo, barnyard grass (Echinochloa crus-galli); conditions: foliage application, 320 g/ha, 3 weeks after application
How it was run: as §2

persian speedwell [7] = test: Test Example 4: herbicidal effect by soil treatment (Table 19, symbol R); assay type: in vivo, Persian speedwell (Veronica persica)
How it was run: as §1

redroot pigweed = test: Test Example 4: herbicidal effect by soil treatment (Table 19, symbol N); assay type: in vivo, redroot pigweed (Amaranthus retroflexus)
How it was run: as §1

Chinese sprangletop = test: Test Example 3: herbicidal effect by foliage application, Wagner pot (Table 18, symbol D); assay type: in vivo, chinese sprangletop (Leptochloa chinensis); conditions: 320 g/ha
How it was run: (§3)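 Plants were sown in alluvial soil held under 0.1–0.5 cm standing water and grown 14 days in a greenhouse at 25–30 °C. An emulsifiable formulation, water-diluted to the set dose, was then sprayed onto the foliage, and effects were scored three weeks later using previously defined criteria.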

Italian ryegrass [8] = test: Test Example 4: herbicidal effect by soil treatment (Table 19, symbol K); assay type: in vivo, Italian ryegrass (Lolium multiflorum)
How it was run: as §1

wild oat [9] = test: Test Example 5: herbicidal effect by foliage application, plastic box (Table 20, symbol I); assay type: in vivo, wild oat (Avena fatua); conditions: foliage application, 320 g/ha, 3 weeks after application
How it was run: as §2

barnyard grass [10] = test: Test Example 4: herbicidal effect by soil treatment (Table 19, symbol H); assay type: in vivo, barnyard grass (Echinochloa crus-galli)
How it was run: as §1

persian speedwell [11] = test: Test Example 5: herbicidal effect by foliage application, plastic box (Table 20, symbol R); assay type: in vivo, Persian speedwell (Veronica persica); conditions: foliage application, 320 g/ha, 3 weeks after application
How it was run: as §2

chickweed = test: Test Example 4: herbicidal effect by soil treatment (Table 19, symbol P); assay type: in vivo, common chickweed (Stellaria media)
How it was run: as §1

barnyard grass [12] = test: Test Example 3: herbicidal effect by foliage application, Wagner pot (Table 18, symbol H); assay type: in vivo, barnyard grass (Echinochloa crus-galli); conditions: 320 g/ha
How it was run: as §3

green foxtail [13] = test: Test Example 4: herbicidal effect by soil treatment (Table 19, symbol G); assay type: in vivo, green foxtail (Setaria viridis)
How it was run: as §1

southern crabgrass [14] = test: Test Example 5: herbicidal effect by foliage application, plastic box (Table 20, symbol F); assay type: in vivo, southern crabgrass (Digitaria ciliaris); conditions: foliage application, 320 g/ha, 3 weeks after application
How it was run: as §2

wild oat [15] = test: Test Example 4: herbicidal effect by soil treatment (Table 19, symbol I); assay type: in vivo, wild oat (Avena fatua)
How it was run: as §1

velvetleaf [16] = test: Test Example 4: herbicidal effect by soil treatment (Table 19, symbol M); assay type: in vivo, velvetleaf (Abutilon theophrasti)
How it was run: as §1

southern crabgrass [17] = test: Test Example 4: herbicidal effect by soil treatment (Table 19, symbol F); assay type: in vivo, southern crabgrass (Digitaria ciliaris)
How it was run: as §1

lambsquarters [18] = test: Test Example 5: herbicidal effect by foliage application, plastic box (Table 20, symbol O); assay type: in vivo, lambsquarters (Chenopodium album); conditions: foliage application, 320 g/ha, 3 weeks after application
How it was run: as §2

lambsquarters [19] = test: Test Example 4: herbicidal effect by soil treatment (Table 19, symbol O); assay type: in vivo, lambsquarters (Chenopodium album)
How it was run: as §1

rice flat sedge = test: Test Example 3: herbicidal effect by foliage application, Wagner pot (Table 18, symbol E); assay type: in vivo, rice flat sedge (Cyperus iria); conditions: 320 g/ha
How it was run: as §3

Italian ryegrass [20] = test: Test Example 5: herbicidal effect by foliage application, plastic box (Table 20, symbol K); assay type: in vivo, Italian ryegrass (Lolium multiflorum); conditions: foliage application, 320 g/ha, 3 weeks after application
How it was run: as §2

blackgrass [21] = test: Test Example 5: herbicidal effect by foliage application, plastic box (Table 20, symbol J); assay type: in vivo, blackgrass (Alopecurus myosuroides); conditions: foliage application, 320 g/ha, 3 weeks after application
How it was run: as §2

SMILES	effect on windgrass (L) (windgrass [2])	effect on green foxtail (G) (green foxtail [3])	effect on velvetleaf (M) (velvetleaf [5])	effect on barnyard grass (H) (barnyard grass [6])	herbicidal effect on D (Chinese sprangletop), rating 0-5 (Chinese sprangletop)	effect on wild oat (I) (wild oat [9])	effect on persian speedwell (R) (persian speedwell [11])	herbicidal effect on H (barnyard grass), rating 0-5 (barnyard grass [12])	effect on southern crabgrass (F) (southern crabgrass [14])	effect on lambsquarters (O) (lambsquarters [18])	herbicidal effect on E (rice flat sedge), rating 0-5 (rice flat sedge)	effect on Italian ryegrass (K) (Italian ryegrass [20])	effect on blackgrass (J) (blackgrass [21])	other results
COCCSCc1ccc(-c2sc3ccccc3c2-c2c(O)c(C)nn(C)c2=O)cc1 [1-251]	0 (Herbicidal rate of 5% or less (almost no effect))	5 (Herbicidal rate of 90% or more (almost completely withered))	5 (Herbicidal rate of 90% or more (almost completely withered))	4 (Herbicidal rate of 70% or more and less than 90%)	3 (Herbicidal rate of 40% or more and less than 70%)	0 (Herbicidal rate of 5% or less (almost no effect))	5 (Herbicidal rate of 90% or more (almost completely withered))	5 (Herbicidal rate of 90% or more (almost completely withered))	1 (Herbicidal rate of 5% or more and less than 20%)	4 (Herbicidal rate of 70% or more and less than 90%)	3 (Herbicidal rate of 40% or more and less than 70%)	4 (Herbicidal rate of 70% or more and less than 90%)	3 (Herbicidal rate of 40% or more and less than 70%)	J: blackgrass, herbicidal effect rating (blackgrass [1]; AAH 320 g/ha): 0 (Herbicidal rate of 5% or less (almost no effect)); L: windgrass, herbicidal effect rating (windgrass [4]; AAH 320 g/ha): 0 (Herbicidal rate of 5% or less (almost no effect)); R: persian speedwell, herbicidal effect rating (persian speedwell [7]; AAH 320 g/ha): 4 (Herbicidal rate of 70% or more and less than 90%); N: redroot pigweed, herbicidal effect rating (redroot pigweed; AAH 320 g/ha): 0 (Herbicidal rate of 5% or less (almost no effect)); K: Italian ryegrass, herbicidal effect rating (Italian ryegrass [8]; AAH 320 g/ha): 0 (Herbicidal rate of 5% or less (almost no effect)); H: barnyard grass, herbicidal effect rating (barnyard grass [10]; AAH 320 g/ha): 0 (Herbicidal rate of 5% or less (almost no effect)); P: chickweed, herbicidal effect rating (chickweed; AAH 320 g/ha): 0 (Herbicidal rate of 5% or less (almost no effect)); G: green foxtail, herbicidal effect rating (green foxtail [13]; AAH 320 g/ha): 0 (Herbicidal rate of 5% or less (almost no effect)); I: wild oat, herbicidal effect rating (wild oat [15]; AAH 320 g/ha): 0 (Herbicidal rate of 5% or less (almost no effect)); M: velvetleaf, herbicidal effect rating (velvetleaf [16]; AAH 320 g/ha): 0 (Herbicidal rate of 5% or less (almost no effect)); F: southern crabgrass, herbicidal effect rating (southern crabgrass [17]; AAH 320 g/ha): 0 (Herbicidal rate of 5% or less (almost no effect)); O: lambsquarters, herbicidal effect rating (lambsquarters [19]; AAH 320 g/ha): 0 (Herbicidal rate of 5% or less (almost no effect))
C=Cc1ccc(-c2sc3ccc(F)cc3c2-c2c(OC(=O)CCC)c(C)nn(C)c2=O)cc1 [2-019]	4 (Herbicidal rate of 70% or more and less than 90%)	5 (Herbicidal rate of 90% or more (almost completely withered))	5 (Herbicidal rate of 90% or more (almost completely withered))	5 (Herbicidal rate of 90% or more (almost completely withered))	3 (Herbicidal rate of 40% or more and less than 70%)	4 (Herbicidal rate of 70% or more and less than 90%)	5 (Herbicidal rate of 90% or more (almost completely withered))	5 (Herbicidal rate of 90% or more (almost completely withered))	4 (Herbicidal rate of 70% or more and less than 90%)	5 (Herbicidal rate of 90% or more (almost completely withered))	4 (Herbicidal rate of 70% or more and less than 90%)	3 (Herbicidal rate of 40% or more and less than 70%)	0 (Herbicidal rate of 5% or less (almost no effect))	herbicidal effect rating, J: blackgrass (blackgrass [1]; 320 g/ha): 0 (Herbicidal rate of 5% or less (almost no effect)); herbicidal effect rating, L: windgrass (windgrass [4]; 320 g/ha): 1 (Herbicidal rate of 5% or more and less than 20%); herbicidal effect rating, R: persian speedwell (persian speedwell [7]; 320 g/ha): 5 (Herbicidal rate of 90% or more (almost completely withered)); herbicidal effect rating, N: redroot pigweed (redroot pigweed; 320 g/ha): 5 (Herbicidal rate of 90% or more (almost completely withered)); herbicidal effect rating, K: Italian ryegrass (Italian ryegrass [8]; 320 g/ha): 5 (Herbicidal rate of 90% or more (almost completely withered)); herbicidal effect rating, H: barnyard grass (barnyard grass [10]; 320 g/ha): 0 (Herbicidal rate of 5% or less (almost no effect)); herbicidal effect rating, P: chickweed (chickweed; 320 g/ha): 4 (Herbicidal rate of 70% or more and less than 90%); herbicidal effect rating, G: green foxtail (green foxtail [13]; 320 g/ha): 2 (Herbicidal rate of 20% or more and less than 40%); herbicidal effect rating, I: wild oat (wild oat [15]; 320 g/ha): 0 (Herbicidal rate of 5% or less (almost no effect)); herbicidal effect rating, M: velvetleaf (velvetleaf [16]; 320 g/ha): 0 (Herbicidal rate of 5% or less (almost no effect)); herbicidal effect rating, F: southern crabgrass (southern crabgrass [17]; 320 g/ha): 0 (Herbicidal rate of 5% or less (almost no effect)); herbicidal effect rating, O: lambsquarters (lambsquarters [19]; 320 g/ha): 3 (Herbicidal rate of 40% or more and less than 70%)
